Test system: HUVEC TNFa-induced VCAM-1 surface expression, immunofluorescence imaging
Assay: suppression of endothelial VCAM-1 upregulation – imaging, high-content imaging, pooled HUVEC, TNFa stimulus (AID 456)

**Q.** Which IC50 does the source give for `S=C(NCC1CCCO1)n1nnc2ccccc21` (configuration not stated) here?
**A.** 8.83 µM

**Q.** `O=S1(=O)C=C(Sc2nc3ccccc3s2)c2ccccc21` was tested. Which IC50 did it give?
**A.** 2.35 µM

**Q.** How did the IC50 turn out when `CN(C)CCCN1c2ccccc2CCc2ccc(Cl)cc21` was run?
**A.** 10.2 µM

**Q.** Which IC50 does the source give for `Clc1ccc(OCc2nnc(SCCN3CCCCC3)n2Cc2ccco2)cc1` here?
**A.** 13.9 µM

**Q.** How did the IC50 turn out when `N#Cc1cc2sc3nnc(-c4ccncc4)n3c2cc1C#N` was run?
**A.** 13.7 µM

**Q.** `O=C(Cn1nc(-c2ccc(Cl)cc2)ccc1=O)NCCCN1CCN(Cc2ccccc2)CC1` was tested. Which IC50 did it give?
**A.** 16.9 µM

**Q.** Which IC50 does the source give for `Cc1nc2sccn2c(=O)c1CCN1CCC(=C(c2ccccc2)c2ccc(F)cc2)CC1` here?
**A.** 11.5 µM

**Q.** `C/C=C(\CS(=O)(=O)c1ccccc1)S(=O)(=O)c1ccccc1` was tested. Which IC50 did it give?
**A.** 6.39 µM

**Q.** How did the IC50 turn out when `C=CS(=O)(=O)c1ccc(Oc2ccc(S(=O)(=O)C=C)cc2)cc1` was run?
**A.** 1.2 µM

**Q.** How did the IC50 turn out when `CC(C)C[C@H]1C(=O)N2CCC[C@H]2[C@]2(O)O[C@](NC(=O)[C@@H]3C=C4c5cccc6[nH]c(Br)c(c56)CC4N(C)C3)(C(C)C)C(=O)N12` (some centres not stated) was run?
**A.** 11 µM

**Q.** For `CCN1C(=O)c2cccc3c(NC(=O)c4ccc(S(=O)(=O)N(C)C)cc4)ccc1c23`, which IC50 is on record?
**A.** 12.1 µM

**Q.** Which IC50 does the source give for `CS(=O)(=O)c1ncc(Cl)c(C(=O)Nc2ccc(N3CCOCC3)cc2)n1` here?
**A.** 6.5 µM

**Q.** `O=C1CCn2nc(-c3ccc(Cl)cc3)cc2N1` was tested. Which IC50 did it give?
**A.** 12.3 µM

**Q.** How did the IC50 turn out when `Oc1ccc(Nc2nc(-c3ccc(O)cc3)cs2)cc1` was run?
**A.** 11.6 µM

**Q.** `Cc1oc(-c2cccc(Cl)c2)nc1CN1CCC(C(=O)N2CCN(c3ccccc3F)CC2)CC1` was tested. Which IC50 did it give?
**A.** 8.7 µM

**Q.** `CCOC(=O)c1ccc(N=c2sc(C(=O)OC)cc(=O)n2Cc2ccco2)cc1` was tested. Which IC50 did it give?
**A.** 4.92 µM

**Q.** With `CN(C)CCCN1c2ccccc2Sc2ccc(Cl)cc21` as the molecule, how does the IC50 read?
**A.** 8.47 µM

Source: PubChem BioAssay AID456 (Sanford-Burnham Center for Chemical Genomics, 2006)
